Measurements reported in patent US20220202964A1, “HEPARANASE COMPOUNDS AND METHODS OF USE” (University of Florida Research Foundation, Incorporated, priority 2019, published 2022).

Assays:
Chondroitinase ABC = biological target: T1, Chondroitinase ABC (Proteus vulgaris, UniProt P59807); experiment: Fluorescence response to biological species: chondroitinase; format: biochemical; conditions: 5 μM; chondroitinase 5 μg (50 μg also tested); 4 h, 37° C.
T1 sequence (P59807 25-1021): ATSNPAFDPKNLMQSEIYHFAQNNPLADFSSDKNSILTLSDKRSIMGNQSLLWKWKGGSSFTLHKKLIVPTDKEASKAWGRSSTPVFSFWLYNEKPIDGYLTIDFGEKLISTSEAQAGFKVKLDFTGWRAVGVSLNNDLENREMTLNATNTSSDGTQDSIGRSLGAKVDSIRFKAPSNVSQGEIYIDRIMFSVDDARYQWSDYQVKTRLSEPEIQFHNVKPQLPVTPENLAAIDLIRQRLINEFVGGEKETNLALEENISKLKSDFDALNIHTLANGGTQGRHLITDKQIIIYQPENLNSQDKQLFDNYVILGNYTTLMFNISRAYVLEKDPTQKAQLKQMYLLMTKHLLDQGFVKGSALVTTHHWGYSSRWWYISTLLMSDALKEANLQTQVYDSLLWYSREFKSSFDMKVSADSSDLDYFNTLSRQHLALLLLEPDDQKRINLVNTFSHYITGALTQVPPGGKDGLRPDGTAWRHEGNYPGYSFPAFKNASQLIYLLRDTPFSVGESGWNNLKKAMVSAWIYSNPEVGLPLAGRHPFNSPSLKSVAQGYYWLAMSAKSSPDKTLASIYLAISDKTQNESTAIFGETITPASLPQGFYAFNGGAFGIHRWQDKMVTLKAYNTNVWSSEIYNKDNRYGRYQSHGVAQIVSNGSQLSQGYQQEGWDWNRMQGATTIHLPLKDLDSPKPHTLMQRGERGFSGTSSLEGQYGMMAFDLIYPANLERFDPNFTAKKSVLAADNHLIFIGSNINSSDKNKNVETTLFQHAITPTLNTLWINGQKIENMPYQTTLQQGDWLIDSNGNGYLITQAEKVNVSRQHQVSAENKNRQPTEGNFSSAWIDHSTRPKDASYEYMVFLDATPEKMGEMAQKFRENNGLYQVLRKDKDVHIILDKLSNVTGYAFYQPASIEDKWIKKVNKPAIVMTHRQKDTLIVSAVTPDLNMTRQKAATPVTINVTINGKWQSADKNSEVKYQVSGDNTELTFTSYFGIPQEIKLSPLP
Protocol: (§1) 5 μM compound 1 (HADP) was incubated with various biological species at the indicated amount/concentration in 96-well microplate. Cysteine (5 mM), Glutathione (5 mM), H2O2 (100 μM), Esterase, Chondroitinase ABC, Hyaluronidase, Lysozyme, β-Glucuronidase, β-Glucosidase (5 μg each) and heparanase (2 μg). For Chondroitinase ABC and Hyaluronidase, 50 μg was also tested. Each sample was performed in triplicates. Then the microplate was sealed with sealing film and incubated at 37° C. for 4 hours. Fluorescence intensity was recorded on Spectramax M5 Multimode plate reader (Molecular Devices, USA). λex/em=365 nm/455 nm.

β-Glucuronidase = biological target: T2, β-Glucuronidase (Homo sapiens, UniProt P08236); experiment: Fluorescence response to biological species: β-glucuronidase; format: biochemical; conditions: 5 μM; β-glucuronidase 5 μg; 4 h, 37° C.
T2 sequence (P08236 23-651): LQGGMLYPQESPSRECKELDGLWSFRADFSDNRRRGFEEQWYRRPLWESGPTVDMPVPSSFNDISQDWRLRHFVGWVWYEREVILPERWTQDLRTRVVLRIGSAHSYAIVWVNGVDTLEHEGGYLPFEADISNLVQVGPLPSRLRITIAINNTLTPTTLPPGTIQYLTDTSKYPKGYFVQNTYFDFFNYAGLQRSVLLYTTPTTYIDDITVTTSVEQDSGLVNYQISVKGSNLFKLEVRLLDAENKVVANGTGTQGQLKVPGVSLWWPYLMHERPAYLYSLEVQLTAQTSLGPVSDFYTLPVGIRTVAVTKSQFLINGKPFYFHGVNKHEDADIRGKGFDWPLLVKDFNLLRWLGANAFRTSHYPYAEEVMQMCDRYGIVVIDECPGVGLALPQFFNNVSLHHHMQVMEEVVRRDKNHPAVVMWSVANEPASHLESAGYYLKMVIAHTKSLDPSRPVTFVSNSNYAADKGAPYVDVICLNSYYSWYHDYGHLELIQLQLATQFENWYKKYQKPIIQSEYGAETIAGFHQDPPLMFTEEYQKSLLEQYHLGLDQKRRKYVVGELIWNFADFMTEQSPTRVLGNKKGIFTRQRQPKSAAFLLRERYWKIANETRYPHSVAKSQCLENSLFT
Protocol: as §1

fluorescence response (β-Glucuronidase): did not trigger fluorescence response
Compound: Cc1cc(=O)oc2c(F)c(O[C@@H]3O[C@H](C(=O)O)[C@@H](O[C@H]4O[C@H](CO)[C@@H](O)[C@H](O)[C@H]4NS(=O)(=O)O)[C@H](O)[C@H]3O)c(F)cc12 [Compound 1]
fluorescence change (Chondroitinase ABC): did not afford obvious fluorescence change
